In patent US12281119B2, “Imidazo[2,1-f][1,2,4]triazin-4-amine derivatives as TLR7 agonist” (BEIGENE, LTD., priority 2019, dated 2025):

Tests used:
[1] = molecular target: T1, human TLR 8 protein (Homo sapiens, UniProt Q9NR97); assay: TLR8 stimulation determined using HEK-Blue Detection; format: cell-based; conditions: HEK-Blue hTLR8 cells, 16 hr, relative to Resiquimod or Motolimod maximum
T1 construct: expressed in transfected cells; host or cells: HEK293 (HEK-Blue hTLR8)
T1 sequence (Q9NR97 27-1041): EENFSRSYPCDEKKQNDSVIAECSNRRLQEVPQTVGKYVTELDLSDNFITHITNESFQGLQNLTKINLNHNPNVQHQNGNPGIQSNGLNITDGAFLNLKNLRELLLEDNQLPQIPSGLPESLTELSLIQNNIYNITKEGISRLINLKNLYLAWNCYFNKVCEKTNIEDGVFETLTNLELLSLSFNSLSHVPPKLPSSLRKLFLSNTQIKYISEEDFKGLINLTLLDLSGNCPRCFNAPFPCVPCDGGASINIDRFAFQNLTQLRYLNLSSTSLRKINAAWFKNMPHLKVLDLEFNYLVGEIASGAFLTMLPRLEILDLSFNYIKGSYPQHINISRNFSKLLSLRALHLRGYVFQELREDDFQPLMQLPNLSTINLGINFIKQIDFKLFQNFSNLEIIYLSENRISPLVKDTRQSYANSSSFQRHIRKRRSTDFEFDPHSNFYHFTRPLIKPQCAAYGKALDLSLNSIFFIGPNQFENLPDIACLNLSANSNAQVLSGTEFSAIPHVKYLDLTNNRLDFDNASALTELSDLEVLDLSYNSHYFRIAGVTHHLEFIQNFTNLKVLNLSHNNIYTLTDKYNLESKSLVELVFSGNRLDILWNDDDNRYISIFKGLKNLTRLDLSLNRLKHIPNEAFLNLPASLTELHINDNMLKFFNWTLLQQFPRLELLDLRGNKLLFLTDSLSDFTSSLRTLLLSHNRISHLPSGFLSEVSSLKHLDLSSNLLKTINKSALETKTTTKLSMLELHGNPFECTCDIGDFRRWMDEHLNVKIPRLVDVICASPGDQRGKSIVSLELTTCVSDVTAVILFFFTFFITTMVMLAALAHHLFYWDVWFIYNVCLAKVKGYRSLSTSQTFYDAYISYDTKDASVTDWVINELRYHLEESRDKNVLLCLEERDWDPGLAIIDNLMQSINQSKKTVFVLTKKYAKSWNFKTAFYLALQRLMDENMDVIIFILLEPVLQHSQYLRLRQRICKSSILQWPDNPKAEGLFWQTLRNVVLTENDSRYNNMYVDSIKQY
Method in brief: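 HEK-Blue hTLR8 cells with NF-κB/AP-1-driven SEAP reporter, 40000 cells/well, treated with 10-point dilutions (1 nM-10 uM final, 0.1% DMSO) for 16 hr at 37° C. SEAP read as OD 620-655 nm. EC50 derived from percent of maximum activation set by Resiquimod or Motolimod.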

[2] = molecular target: T2, human TLR7 (Homo sapiens, UniProt Q9NYK1); assay: TLR7 stimulation determined using HEK-Blue Detection; format: cell-based; set-up: expressed in transfected cells; host or cells: HEK293 (HEK-Blue hTLR7); conditions: HEK-Blue hTLR7 cells, HEK-Blue Detection (A77-A124), 16 hr, relative to Resiquimod maximum
T2 sequence (Q9NYK1 27-1049): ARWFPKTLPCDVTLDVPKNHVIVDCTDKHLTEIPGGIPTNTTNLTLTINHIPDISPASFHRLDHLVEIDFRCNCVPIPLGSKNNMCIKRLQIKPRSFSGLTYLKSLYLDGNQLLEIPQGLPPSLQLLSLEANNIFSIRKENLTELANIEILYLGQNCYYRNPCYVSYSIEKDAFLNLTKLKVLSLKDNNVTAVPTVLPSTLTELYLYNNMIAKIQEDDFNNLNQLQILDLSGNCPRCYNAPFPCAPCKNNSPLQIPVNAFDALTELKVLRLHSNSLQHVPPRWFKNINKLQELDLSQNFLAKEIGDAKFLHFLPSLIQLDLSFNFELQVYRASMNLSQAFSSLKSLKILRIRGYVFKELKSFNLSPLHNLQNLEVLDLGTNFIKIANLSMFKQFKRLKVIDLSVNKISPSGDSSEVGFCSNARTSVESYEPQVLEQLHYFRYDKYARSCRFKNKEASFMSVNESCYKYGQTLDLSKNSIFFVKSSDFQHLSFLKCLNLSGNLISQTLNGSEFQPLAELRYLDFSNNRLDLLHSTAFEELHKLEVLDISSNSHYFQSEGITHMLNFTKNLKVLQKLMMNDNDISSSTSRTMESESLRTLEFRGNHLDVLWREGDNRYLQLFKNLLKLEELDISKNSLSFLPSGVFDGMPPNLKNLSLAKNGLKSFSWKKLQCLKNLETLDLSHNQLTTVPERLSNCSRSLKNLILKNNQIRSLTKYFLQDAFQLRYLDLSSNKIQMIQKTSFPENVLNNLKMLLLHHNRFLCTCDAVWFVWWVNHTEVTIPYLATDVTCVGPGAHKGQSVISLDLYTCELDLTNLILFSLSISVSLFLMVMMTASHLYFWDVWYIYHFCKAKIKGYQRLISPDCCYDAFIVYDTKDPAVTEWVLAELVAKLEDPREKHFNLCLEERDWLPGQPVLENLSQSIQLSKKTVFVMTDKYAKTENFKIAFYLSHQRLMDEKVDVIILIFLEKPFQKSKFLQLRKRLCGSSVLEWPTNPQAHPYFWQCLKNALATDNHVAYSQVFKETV
Description: TLR7 Stimulation Determined Using HEK-Blue Detection
This assay was designed for studying the stimulation of human TLR7 protein in HELK-Blue hTLR7 tool cell line by monitoring the activation of NF-κB. HEK-Blue hTLR7 cells were obtained by co-transfection of the hTLR7 gene and an optimized secreted embryonic alkaline phosphatase (SLAP) reporter gene into HEK293 cells. The SLAP reporter gene was placed under the control of the IFN-β minimal promoter fused to five NF-κB and AP-1-binding sites. Stimulation with a TLR7 ligand activates NF-κB and AP-1 which induce the expression of SLAP. Levels of SLAP can be easily determined with HEK-Blue Detection, a cell culture medium that allows for real-time detection of SLAP. HLK-Blue Detection contains all the nutrients necessary for cell growth and a specific SLAP color substrate. The hydrolysis of the substrate by SLAP produces a purple/blue color that can be measured with a spectrophotometer.
When growing to 50-80%0 confluency, HLK-Blue hTLR7 cells were plated into 96-well plate (costar 3599) at a density of 40000 cells/well. Then compounds were added with serial dilutions over 10 points with a 0.04 nM-10 μM final concentration range in 0.1% DMSO/BLK-Blue Detection. The plates were then incubated for 16 hr at 37° C. in […] and vortex for 30s before measurement. The optical density at 620-655 nm was read on BMG PHLRAstar FSX instrument. The EC50 for each compound was determined by calculating the percentages of the maximum activation identified with Resiquimod.

EC50 [1] [nM]	EC50 [2] [nM]	SMILES
8.6	0.78	CCCC(CCO)Oc1nc(N)c2ncc(Cc3ccc(OCCNC)cc3OC)n2n1 (single isomer, unassigned) [Compound A101, (R or S)-3-((4-amino-7-(2-methoxy-4-(2-(methylamino)ethoxy)benzyl)imidazo[2,1-f][1,2,4]triazin-2-yl)oxy)hexan-1-ol]
134	3.7	CCCC(CCO)Oc1nc(N)c2ncc(Cc3ccc(OCCNC)c(Cl)c3)n2n1 (centres unmarked) [Compound A102, 3-((4-amino-7-(3-chloro-4-(2-(methylamino)ethoxy)benzyl)imidazo[2,1-f][1,2,4]triazin-2-yl)oxy)hexan-1-ol]
21	11	CCCC(CCO)Oc1nc(N)c2ncc(Cc3cccc(OCCNC)c3OC)n2n1 (single isomer, unassigned) [Compound A118, (R or S)-3-((4-amino-7-(2-methoxy-3-(2-(methylamino)ethoxy)benzyl)imidazo[2,1-f][1,2,4]triazin-2-yl)oxy)hexan-1-ol]
47	1.9	CCCC(CCO)Oc1nc(N)c2ncc(Cc3ccc(OCCNC)c(F)c3F)n2n1 (single isomer, unassigned) [Compound A111, (R or S)-3-((4-amino-7-(2,3-difluoro-4-(2-(methylamino)ethoxy)benzyl)imidazo[2,1-f][1,2,4]triazin-2-yl)oxy)hexan-1-ol]
> 10000	> 10000	CNCCOc1ccc(Cc2cnc3c(N)nc(OCC4CCCO4)nn23)cn1 (centres unmarked) [Compound A88, 7-((6-(2-(methylamino)ethoxy)pyridin-3-yl)methyl)-2-((tetrahydrofuran-2-yl)methoxy)imidazo[2,1-f][1,2,4]triazin-4-amine]
15	2.1	CCCC(CCO)Oc1nc(N)c2ncc(Cc3ccc(OCCNC)c(F)c3)n2n1 (centres unmarked) [Compound A91, 3-((4-amino-7-(3-fluoro-4-(2-(methylamino)ethoxy)benzyl)imidazo[2,1-f][1,2,4]triazin-2-yl)oxy)hexan-1-ol]
41	4.5	CCCC(CCO)Oc1nc(N)c2ncc(Cc3ccc(OCCNC)cc3)n2n1 (centres unmarked) [Compound A85, 3-((4-amino-7-(4-(2-(methylamino)ethoxy)benzyl)imidazo [2,1-f][1,2,4]triazin-2-yl)oxy)hexan-1-ol]
2970	146	CCCC(CCO)Oc1nc(N)c2ncc(Cc3ccc(CCNC)cc3)n2n1 (single isomer, unassigned) [Compound A119, (R or S)-3-((4-amino-7-(4-(2-(methylamino)ethyl)benzyl)imidazo[2,1-f][1,2,4]triazin-2-yl)oxy)hexan-1-ol]
47	2.4	CCCC(CCO)Oc1nc(N)c2ncc(Cc3ccc(OCCNC)c(C)c3)n2n1 (single isomer, unassigned) [Compound A103, (R or S)-3-((4-amino-7-(3-methyl-4-(2-(methylamino)ethoxy)benzyl)imidazo[2,1-f][1,2,4]triazin-2-yl)oxy)hexan-1-ol]
532	13	CCCC(CCO)Oc1nc(N)c2ncc(Cc3ccc(OC)c(OCCNC)c3)n2n1 (single isomer, unassigned) [Compound A117, (R or S)-3-((4-amino-7-(4-methoxy-3-(2-(methylamino)ethoxy)benzyl)imidazo[2,1-f][1,2,4]triazin-2-yl)oxy)hexan-1-ol]
112	8.9	CCC[C@H](C)Oc1nc(N)c2ncc(Cc3ccc(OCCNC)nc3)n2n1 [Compound A90, (S)-7-((6-(2-(methylamino)ethoxy)pyridin-3-yl)methyl)-2-(pentan-2-yloxy)imidazo[2,1-f][1,2,4]triazin-4-amine]
59	3.9	CCCC(CCO)Oc1nc(N)c2ncc(Cc3ccc(CCNC)cc3)n2n1 (single isomer, unassigned) [Compound A120, (S or R)-3-((4-amino-7-(4-(2-(methylamino)ethyl)benzyl)imidazo[2,1-f][1,2,4]triazin-2-yl)oxy)hexan-1-ol]
12	1.6	CCCC(CCO)Oc1nc(N)c2ncc(Cc3ccc(OCCNC)c(F)c3)n2n1 (single isomer, unassigned) [Compound A106, (S or R)-3-((4-amino-7-(3-fluoro-4-(2-(methylamino)ethoxy)benzyl)imidazo[2,1-f][1,2,4]triazin-2-yl)oxy)hexan-1-ol]
6.8	1	CCCC(CCO)Oc1nc(N)c2ncc(Cc3cc(F)c(OCCNC)c(F)c3)n2n1 (single isomer, unassigned) [Compound A114, (R or S)-3-((4-amino-7-(3,5-difluoro-4-(2-(methylamino)ethoxy)benzyl)imidazo[2,1-f][1,2,4]triazin-2-yl)oxy)hexan-1-ol]
6250	310	CCCC(CCO)Oc1nc(N)c2ncc(Cc3ccc(OCCNC)nc3)n2n1 (single isomer, unassigned) [Compound A81, (R or S) 3-((4-amino-7-((6-(2-(methylamino)ethoxy)pyridin-3-yl)methyl)imidazo[2,1-f][1,2,4]triazin-2-yl)oxy)hexan-1-ol]
13.5	1.7	CCCC(CCO)Oc1nc(N)c2ncc(Cc3ccc(OCCNC)cc3)n2n1 (single isomer, unassigned) [Compound A93, (S or R) 3-((4-amino-7-(4-(2-(methylamino)ethoxy)benzyl)imidazo[2,1-f][1,2,4]triazin-2-yl)oxy)hexan-1-ol]
